Measurements from patent US20260258039A1, “AROMATIC COMPOUND, METHOD FOR PREPARING SAME, AND USE THEREOF IN PREPARATION OF ESTROGEN RECEPTOR DEGRADER” (Hinova Pharmaceuticals Inc., priority 2022, published 2026).
Where two headings read alike, the source gives them in different places.

What was measured:
[1] = Pharmacokinetics in female ICR mice; details: plasma; for half-life / AUC(0-inf): female, ICR, mouse, po, 3 mg/kg; for AUC(0-inf): AUCinf (μg*h/mL)
Method: Pharmacokinetic experimental steps: A suitable amount of compound to be administered was weighed, and after the final volume required was calculated, a drug solution with corresponding concentration was prepared using the medium (DMSO/HS-15/Tween 80/D5W (5:5:2:88, v/v/v/v)). For intravenous administration, each drug was administered to 9 animals (female ICR mice, provided by Chengdu Dossy Experimental Animal Co., Ltd.) at a dose of 1 mg/kg (drug volume of 10 mL/kg, drug concentration of 0.1 mg/mL). After administration, samples were alternately collected from three animals of each group at time points of 5 min, 15 min, 30 min, 1 h, 2 h, 4 h, 8 h, 12 h, and 24 h. For oral gavage, each drug was administered to 9 animals (female ICR mice) at a dose of 3 mg/kg (drug volume of 10 mL/kg, drug concentration of 0.3 mg/mL). After administration, samples are alternately collected from three animals of each group at time points of 15 min, 30 min, 1 h, 2 h, 4 h, 6 h, 8 h, 12 h, and 24 h. The samples were anticoagulated with EDTA-K2 and centrifuged at 4° C. for 5 min to separate the plasma. The plasma samples were vortexed and mixed. A suitable amount of internal standard working solution was added to the 96-well plate containing samples used for plotting standard curve, samples used for quality control, or samples to be tested; A suitable amount of methanol was added to the blank sample, vortexed and mixed thoroughly, and then centrifuged for 15 min before the supernatant was collected and injected to LC-MS/MS for analysis. The plasma concentration at each time point was used to calculate the main pharmacokinetic parameters using the Winnolin 8.3 non-compartmental model.

[2] = tested on: MCF-7 breast cancer cells; assay: Pharmacodynamic experiment in mouse models of human breast cancer (MCF-7 tumors); type: in vivo, NOD/SCID female mice; details: dose 10 mg/kg, once-daily oral gavage
Method: MCF-7 breast cancer cells were cultured in MEM medium containing 10% FBS, 0.01 mM NEAA, and 10 µg/mL insulin. MCF-7 cells in the exponential growth phase were collected and resuspended in PBS to a suitable concentration for subcutaneous injection into mice. The experimental animals were NOD/SCID female mice (purchased from GemPharmatech Co. Itd, Jiangsu). Before inoculation of tumor cells, a 0.36 mg/60-day slow-release estrogen tablet (17β-estradiol, Innovative Research of America, Sarasota, Florida, USA) was subcutaneously implanted on the right side of the back of the experimental animals. The day after estrogen tablet implantation, 2×10^7 MCF-7 cells were inoculated into the right mammary fatty pad of the experimental mice, wherein the cells were resuspended in PBS and Matrigel (1:1) (0.2 mL/mouse). The tumor growth was regularly observed.
When the tumors in the tumor-bearing mice grew to an average volume of approximately 245.56 mm^3, they were randomly grouped for administration based on tumor size. Grouping was performed using StudyDirector™ (version 3.1.399.19, supplier Studylog System, Inc., S. San Francisco, CA, USA). […]
After starting drug administration, the body weight and tumor size of mice were measured twice a week. […] The raw data were directly imported into the software after being measured using a balance and vernier caliper. […]

[3] = tested on: MCF-7 breast cancer cells; assay: Inhibition of proliferation of MCF-7 breast cancer cells (agarose culture, CellTiter-Glo 3D); type: cell-based; details: MCF-7 cells, 15 days of cultivation, read-out: IC50
ER [4] = biological target: T1, ER (Homo sapiens, UniProt P03372); assay: Degradation activities on ER (ELISA) in T47D breast cancer cells; type: cell-based; details: T47D cells, 24 h, ELISA; for DC50: concentration required to degrade 50% of the target protein; for Dmax: maximum percentage of target protein degraded
T1 construct: T47D breast cancer cells were subcultured in cell culture medium; endogenous in cells; host or cells: T47D breast cancer cells
T1 sequence (P03372 1-595): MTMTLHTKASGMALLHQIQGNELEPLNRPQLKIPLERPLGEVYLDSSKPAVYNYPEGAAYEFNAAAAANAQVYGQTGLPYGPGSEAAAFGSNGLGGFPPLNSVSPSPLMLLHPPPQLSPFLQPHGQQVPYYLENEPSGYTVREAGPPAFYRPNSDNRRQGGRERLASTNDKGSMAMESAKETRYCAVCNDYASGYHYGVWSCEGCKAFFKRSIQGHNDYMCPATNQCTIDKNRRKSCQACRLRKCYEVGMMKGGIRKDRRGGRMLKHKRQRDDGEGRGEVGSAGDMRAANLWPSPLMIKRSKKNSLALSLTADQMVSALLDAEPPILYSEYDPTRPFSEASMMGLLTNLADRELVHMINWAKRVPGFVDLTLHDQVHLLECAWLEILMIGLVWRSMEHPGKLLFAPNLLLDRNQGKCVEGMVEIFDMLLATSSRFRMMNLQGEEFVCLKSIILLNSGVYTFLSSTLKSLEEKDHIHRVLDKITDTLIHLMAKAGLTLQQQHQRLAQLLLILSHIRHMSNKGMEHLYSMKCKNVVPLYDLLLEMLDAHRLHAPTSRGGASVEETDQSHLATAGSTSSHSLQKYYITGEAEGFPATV
Summary of the method: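 T47D cells were seeded at 2.5×10^4/well, grown 3 days at 37 °C, 5% CO2, then exposed 24 h to compound at 100, 25, 6.25, 1.56, 0.39 and […] nM (final). ER protein was quantified by sandwich ELISA with HRP/TMB read at 450 nm, and DC50 and Dmax came from dose-response fits.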

ER [5] = biological target: T1, ER; assay: Degradation activities on ER (Western blotting) in T47D breast cancer cells; type: cell-based; details: 24 h, Western blot
Summary of the method: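 T47D cells seeded 2.5×10^5/well, grown overnight, then treated 24 hours with compound (0.1% DMSO) in duplicate. ERα level measured by Western blot of 30 μg lysate protein, with GAPDH as loading control and ECL chemiluminescence detection.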

[6] = oral administration 3 mg/kg, female ICR mice

O=C1CCC(N2Cc3cc(N4CCN(CC5CCN(c6ccc([C@@H]7c8ccc(O)cc8CC[C@@H]7c7ccccc7)cc6)CC5)CC4)ccc3C2=O)C(=O)N1 (stereo partly drawn) [Control compound X, reference compound]
half-life [1]: 2.3 h | AUC(0-inf) [1, 6]: 1300 ng·h/mL | TGI (tumor growth inhibition) ([2]; day 28): 29% | average tumor volume ([2]; end of experiment (day 28)): 362 mm^3

O=C1CCC(N2Cc3cc(N4CC5(CCN(CC6CCN(c7ccc([C@@H]8c9ccc(O)cc9OC[C@@H]8c8ccccc8F)cc7)CC6)CC5)C4)ccc3C2=O)C(=O)N1 (stereo partly drawn) [Example 30]
AUCinf (μg*h/mL) [1, 6]: B (B: 1.4-2.5 μg*h/mL) | T1/2 (h) [1, 6]: A (A: >3.5 h) | IC50 ([3]; Homo sapiens, MCF7, 360 h): < 10 nM | DC50 (ER [4]): < 10 nM | Dmax (ER [4]; read-out: Dmax): 50 to 75% | Percentage reduction of ER (ER [5]; compound concentration 1 nM): 62%

O=C1CCC(N2Cc3cc(N4CC5(CCN(CC6CCN(c7c(F)cc([C@@H]8c9ccc(O)cc9OC[C@@H]8c8ccccc8F)cc7F)CC6)CC5)C4)ccc3C2=O)C(=O)N1 (stereo partly drawn) [Example 32, 3-(5-(7-((1-(2,6-difluoro-4-((3,4-cis)-3-(2-fluorophenyl)-7-hydroxybenzodihydropyran-4-yl)phenyl)piperidin-4-yl)methyl)-2,7-diazaspiro[3.5]nonane-2-yl)-1-oxoisoinodolin-2-yl)piperidin-2,6-dione]
half-life [1]: > 3.5 h | AUC(0-inf) [1, 6]: 1400 to 2500 ng·h/mL | IC50 ([3]; Homo sapiens, MCF7, 360 h): < 10 nM | DC50 (ER [4]): < 10 nM | Dmax (ER [4]; read-out: Dmax): 50 to 75% | Percentage reduction of ER (ER [5]; compound concentration 10 nM): 81%

O=C1CCC(N2Cc3cc(N4CC5(CCN(CC6CCN(c7ccc([C@@H]8c9ccc(O)cc9OC[C@@H]8c8c(F)cccc8F)cc7)CC6)CC5)C4)ccc3C2=O)C(=O)N1 (stereo partly drawn) [Example 63, 3-(5-(7-((1-(4-(3-(2,6-difluorophenyl)-7-hydroxyl-chroman-4-yl)phenyl)piperidin-4-yl)methyl)-2,7-diazaspiro[3.5]nonane-2-yl)-1-oxoisoinodolin-2-yl)piperidin-2,6-dione]
half-life [1]: > 3.5 h | AUC(0-inf) [1, 6]: > 2500 ng·h/mL | IC50 ([3]; Homo sapiens, MCF7, 360 h): < 10 nM | Dmax (ER [4]; read-out: Dmax): 50 to 75% | Percentage reduction of ER (ER [5]; compound concentration 10 nM): 51%

O=C1CCC(N2Cc3cc(N4CC5(CCN(CC6CCN(c7ccc([C@@H]8c9ccc(O)cc9OC[C@@H]8c8ccccc8F)cc7)CC6)CC5)C4)ccc3C2=O)C(=O)N1 (stereo partly drawn) [Example 89, 3-(5-(7-((1-(4-((3S, 4R)-3-(2-fluorophenyl)-7-hydroxychroman-4-yl)phenyl)piperidin-4-yl)methyl)-2,7-diazaspiro[3.5]nonane-2-yl)-1-oxoisoinodolin-2-yl)piperidin-2,6-dione]
half-life [1]: > 3.5 h | AUC(0-inf) [1, 6]: 1400 to 2500 ng·h/mL | IC50 [3]: < 10 nM | DC50 (ER [4]): < 10 nM | Dmax (ER [4]): B (B: 75-50%) | Percentage reduction of ER (ER [5]; compound concentration 1 nM): 52%
